We go through one compound from paper PMC12280925, “Structure-based discovery of positive allosteric modulators of the A1 adenosine receptor” (Proceedings of the National Academy of Sciences of the …, 2025).

Data set [1] concerns the target T1, A1R (A1R-FlpInCHO cells) (Homo sapiens, UniProt P30542).
T1 sequence (P30542 1-326): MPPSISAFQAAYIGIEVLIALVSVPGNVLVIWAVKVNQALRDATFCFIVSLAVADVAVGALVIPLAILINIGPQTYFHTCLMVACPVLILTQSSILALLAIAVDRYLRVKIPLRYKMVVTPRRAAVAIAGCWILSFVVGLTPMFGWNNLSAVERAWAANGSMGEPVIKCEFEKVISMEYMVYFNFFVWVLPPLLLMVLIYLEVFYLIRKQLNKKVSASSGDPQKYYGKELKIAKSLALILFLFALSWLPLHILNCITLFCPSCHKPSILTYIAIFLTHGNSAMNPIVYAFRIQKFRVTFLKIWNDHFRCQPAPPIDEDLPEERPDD
The data set is described as follows: Inhibition of forskolin-stimulated cAMP accumulation: NECA potency ± compound and compound alone. The format is cell-based. As for the experimental part: (§1) FlpInCHO cell lines and cortical neuron cells were seeded into transparent 96-well plates at 20,000 cells/well and incubated for 16 to 20 h in a humidified incubator at 37 °C in 5% CO2. […] Compounds were added at either a single concentration (10 or 30 μM) or a concentration range for full interaction studies (3 to 30 μM), and plates were incubated for 30 to 60 min at 37 °C in a humidified chamber. […] After 30 min incubation at 37 °C, the reaction was terminated by rapid removal of buffer and the addition of 50 μL/well cold ethanol. […] Agonist concentration–response curves were normalized to the response mediated by 3 µM forskolin […].
Response=Basal+Emax-Basal×A/EC50+A,
(In general: Changes in cAMP serve as a functional read-out for many G protein-coupled receptors.)

In data set [2] the target is T2, A1R allosteric site (A1R-FlpINCHO cells, wild type) (Homo sapiens, UniProt P30542).
T2 sequence (P30542 1-326): T1 sequence (P30542 1-326)
The data set is described as follows: Whole-cell [3H]DPCPX interaction binding with NECA, allosteric ternary complex model.
Procedure: [^3H]DPCPX (8-cyclopentyl-1,3-dipropylxanthine, [dipropyl-2,3-^3H(N)]) whole-cell binding assays were performed on FlpINCHO cells stably expressing either WT (nontagged or 3xHA-tagged) or mutant 3xHA-A1R. Cells were seeded into a transparent 96-well plate at 40,000 cells/well in DMEM containing 10% FBS. Following 8 h incubation in a humidified environment at 37 °C in 5% CO2, cells were washed and maintained in serum-free DMEM for approximately 18 h at 37 °C in 5% CO2. […] Assays were terminated by washing twice with 100 μL/well cold phosphate-buffered saline, followed by the addition of 100 μL OptiPhase Supermix™ scintillation cocktail and bound radioactivity measured using a MicroBeta^2 ™ plate counter (PerkinElmer).
Equilibrium binding interaction experiments were fitted to the following allosteric ternary complex model.[3] Y=BmaxA/A+KAKB/αAB+KB1+[I]/KI+[B]/KB+αII[B]/KIKB,
A cooperativity factor α > 1 describes positive cooperativity; a value 0 < α < 1 describes negative cooperativity, and a value of α = 1 describes neutral cooperativity.

The target in data set [3] is T1, A1R (A1R-FlpInCHO cells). The experiment in a line: NECA/allosteric ligand interaction in cAMP accumulation, operational model of allosterism. The class given is cell-based. As for the experimental part:
as §1
[5] E=EmτAAKB+αβ[B]+τB[B]KA^n/AKB+KAKB+[B]KA+α[A][B]^n+τAAKB+αβ[B]+τB[B]KA^n
Orthosteric agonist and allosteric ligand affinity were constrained to values determined from radioligand binding.

Data set [4] deals with T3, A1R S246^6.47A mutant (Homo sapiens, UniProt P30542, S246A).
T3 construct: expressed in transfected cells; host or cells: FlpInCHO cells, stably transfected
T3 sequence (P30542 1-326 S246A): T1 sequence (P30542 1-326) with S246A
Details: method as in PMID 34497422. The note with it: cited from earlier work.

Data set [5] has as its target T4, A1R G279^7.44A mutant (Homo sapiens, UniProt P30542, G279A).
T4 construct: expressed in transfected cells; host or cells: FlpInCHO cells, stably transfected
T4 sequence (P30542 1-326 G279A): T1 sequence (P30542 1-326) with G279A
Details: method as in PMID 34497422. The note with it: cited from earlier work.

On the set-up of data set [6]: method as in PMID 34497422. The note with it: in vitro liver microsome assays; cited from earlier work. In general terms: Liver microsomes are vesicles of endoplasmic reticulum, rich in cytochrome P450 enzymes.
Details of data set [7]: method as in PMID 34497422. The note with it: rat model; cited from earlier work.

Positions count from the first letter of the chain named. pKd: −log10 of the molar value.

With `Nc1scc(-c2cc(C(F)(F)F)cc(C(F)(F)F)c2)c1C(=O)c1ccc(Cl)cc1` [compound 1, reference compound], the “inhibition of 3 μM forskolin-stimulated cAMP accumulation” value in data set [1] (30 μM compound in the absence of NECA, for NECA: maximal response) is given as 83%. The “functional response relative to NECA maximal response” value in data set [1] (30 μM, absence of NECA) is “approximately 80%”. In data set [2] (allosteric ternary complex model, n = 4), the “allosteric ligand affinity (pKB)” value came out at 5.18 ± 0.21. The “binding cooperativity with NECA (logα)” value in data set [2] (allosteric ternary complex model, orthosteric agonist NECA) is listed as 2.09 ± 0.22. Further, the “positive cooperativity between PAM and NECA” value in data set [2] (approximate, from logα) is given as “approximately 100 fold”. For the same compound, in data set [2] (approximate, from pKB, read-out: affinity for the A1R allosteric site), the pKd was about 5.10. In addition, the “allosteric ligand efficacy (logτB)” value in data set [3] (allosteric agonism in cAMP) worked out at 0.56 ± 0.06. Moreover, the “functional cooperativity with NECA (logαβ)” value in data set [3] (cAMP) is 0.78 ± 0.15. Besides, the “effect of binding site mutation on affinity” value in data set [4] and in data set [5] was “small (four- to seven-fold) but significant reduction” each time. Moreover, in data set [6], the “metabolism in liver microsomes” value was “rapid metabolism”. Also, the “in vivo analgesic efficacy” value in data set [7] is listed as “in vivo analgesic efficacy”.
